Results: patent publication US20060094676A1, “Compositions and methods for treating cancer using compositions comprising an inhibitor of endothelin receptor activity” (priority 2004, published 2006)

How the values were obtained:
caspase 6 = experiment: Mch2/Caspase-6 colorimetric protease assay on cell lysates; assay type: cell-based, human; details: SK-MEL-28; after 3 days of treatment with BQ788
Method: Equal amounts of RNA from cells that were treated with BQ788 for 3 days were subjected to real-time RT-PCR analysis for the detection of BCL-2A1 (A) and ADP ribosyltransferase 3 (B) transcripts. Total amounts are represented in A while relative (to control) values are shown in B. Differences in expression levels are shown as x fold decrease and are statistically significant (p<0.05) unless a column in marked as non significant (N.S.). Lysates of BQ788 treated cells and controls were subjected to an apoptosis ELISA detection test (C). SK-MEL-28 cells were cultured with pan caspase inhibitor (D) or with caspase 6 inhibitor (E) with or without BQ788 for 2.5 days. […] SK-MEL-28 cells were cultured for 3 days in the presence of BQ788 and assayed for caspase 6 activity (F). […]
Caspase 3 inhibitor I (inhibits caspases 3, 6, 7, 8 & 10), cell-permeable (Calbiochem) and Caspase 6 inhibitor II, Cell-Permeable (Calbiochem) were dissolved in DMSO. […] Cell viability was measured using MTS solution in parallel experiments at 5 different time points. Caspase 6 activity was measured using Mch2/Caspase-6 Colorimetric Protease Assay Kit according to the manufacturer's instructions. […] Caspase 6 activity was measured in 4 samples containing equal amounts of protein from each condition by spectrophotometric detection of a chromophore following its release from the labeled caspase 6 substrate VEID. […]

[1] = tested on: tumors derived from a human melanoma cell line grown in nude mice; details: cited from earlier work
LN-met = experiment: Apoptosis detection ELISA (histone-associated DNA fragments); assay type: cell-based, human; details: BQ788 5 days
Method: (§1) Cells were plated in 24 wells plate in 500 μl medium and cultured for 5 days in the presence of BQ788 or solvent. A cell death detection ELISA PLUS kit (Roche) designed to reveal histone-180 bp DNA fragment complexes of nucleosomes was used to measure apoptosis. Briefly, cells floating in the supernatants and those attached to the dish were incubated in lysis buffer for 30 min. in room temperature (RT). After spinning for 10 min at 200 g, the DNA content of each sample was determined. 20 μl containing equal amounts of DNA were added to each well (3 wells per condition) coated with anti-histone antibody and incubated with additional 80 μl anti-DNA peroxidase immunogen under gentle shaking conditions for 2 h at RT. After washing and revelation with peroxidase substrate the samples OD were measured at 405 nm against substrate containing wells as blank.
(§2) Because BCL-2A1 and PARP are known regulators of apoptosis (Smulson, et al., Roles of poly(ADP-ribosyl)ation and PARP in apoptosis, DNA repair, genomic stability and functions of p53 and E2F-1, Adv. Enzyme Regul., 40:183-215 (2000); Vander Heiden, et al., Bcl-2 proteins: regulators of apoptosis or of mitochondrial homeostasis?, Nat. Cell Biol., 1:E209-E216, (1999)), we used an apoptosis detection ELISA that detects histone-associated DNA fragments to measure apoptotic cell death in the different cell lines treated with BQ788.

primary melanoma cells = experiment: as above; assay type: cell-based, human; details: BQ788 5 days
Method: as §1, §2

SK-MEL-28 = experiment: as above; assay type: cell-based, human; details: BQ788 5 days
Method: as §1, §2

Cut-met line = experiment: as above; assay type: cell-based, human; details: BQ788 5 days
Method: as §1, §2

CCCC[C@@H](NC(=O)[C@@H](Cc1cn(C(=O)OC)c2ccccc12)NC(=O)[C@H](CC(C)(C)C)NC(=O)N1[C@H](C)CCC[C@@H]1C)C(=O)O [BQ788, N-cis-2,6-dimethylpiperidinocarbonyl-L-γ-methylleucyl-D-1-methoxycarbonyltrptophanyl-D-norleucine]
caspase 6 activation (caspase 6): could be detected
tumor growth ([1]; human melanoma tumors in nude mice injected with BQ788): inhibition of growth
tumor size ([1]; tumors treated systemically, nude mice): shrinkage of tumors
apoptosis level (LN-met): intermediate level
apoptosis level (primary melanoma cells): did not display apoptosis
apoptosis level (SK-MEL-28): highest induction
apoptosis level (Cut-met line): slight increase
